From US20150045410A1, “METHOD OF REGULATING CFTR EXPRESSION AND PROCESSING” (University of Iowa Research Foundation, priority 2012, published 2015)

Columns and labels:
CFTR = assay: Transepithelial conductance and current (Ussing chamber) in polarized Calu-3 epithelia; format: cell-based; conditions: F&I stimulation, GlyH-101 inhibition
Procedure: Freshly dissociated human airway epithelial cells or immortalized cell lines were transfected in pre-coated 96 well plates (Costar) or Transwell™ Permeable Supports (0.33 cm^2 0.4 μm polyester membrane, Costar 3470). Lipofectamine™ RNAiMAX (Invitrogen) was used as a reverse transfection reagent. Pre-coated (with human placental collagen Type IV, Sigma) substrates were incubated with the transfection mix comprising of Opti-MEM (Invitrogen), oligonucleotide (Integrated DNA Technologies) and Lipofectamine™ RNAiMAX (Invitrogen). 15-20 minutes later, 200,000 freshly dissociated cells suspended in DMEM/F-12 were added to each well/insert. […]
Transepithelial Cl^− current measurements were made in Ussing chambers about 2 weeks post-seeding (Itani, 0. A. et al. Human cystic fibrosis airway epithelia have reduced Cl− conductance but not increased Na+ conductance. Proc. Natl. Acad. Sci. USA 108, 10260-10265 (2011)). […] Transepithelial Cl^− current was measured under short-circuit current conditions. […] After measuring baseline current, the transepithelial current (It) response to sequential apical addition of 100 μM amiloride (Amil), 100 μM 4,4′-diisothiocyanoto-stilbene-2,2′-disulfonic acid (DIDS), 4.8 mM [Cl^−], 10 μM forskolin and 100 μM 3-isobutyl-1-methylxanthine (IBMX), and 100 μM GlyH-101 was measured. […]

HA-tagged wild-type CFTR = assay: Cell surface ELISA (anti-HA) in HeLa cells stably expressing HA-tagged wild-type CFTR; format: cell-based; conditions: wild-type CFTR-3HA under CMV promoter, 6, 12, 24 hrs post-transfection
Text: Hela cells stably expressing wild-type CFTR or CFTR-ΔF508 were kindly provided by Dr. G. Lukacs (Sharma, M., Benharouga, M., Hu, W. & Lukacs, G. L. Conformational and temperature-sensitive stability defects of the delta F508 cystic fibrosis transmembrane conductance regulator in post-endoplasmic reticulum compartments. J Biol. Chem. 276, 8942-8950, (2001); Sharma, M. et al. Misfolding diverts CFTR from recycling to degradation: quality control at early endosomes. J Cell Biol. 164, 923-933 (2004)). Cell surface ELISA was performed on these cells (Okiyoneda, T. et al. Peripheral protein quality control removes unfolded CFTR from the plasma membrane. Science 329, 805-810 (2010)) 6 hrs, 12 hrs, and 24 hrs after transfecting with oligonucleotides. HeLa cells were transfected in 96 well plates (Costar) with the SIN3A DsiRNA and miR-138 mimic as described earlier using the Lipofectamine™ RNAiMAX (Invitrogen) recommended reverse transfection protocol. Briefly, the plate containing the cells was moved to a cold room (4° C.), and all media used was ice cold. […] The reaction was stopped and read on a VersaMax™ Microplate Reader (Molecular Devices) at 540 nm using the SoftMax® Prof Software (Molecular Devices). For normalization, cells were lysed and total protein quantitated using the BCA Protein Assay kit (Pierce). […] Statistical significance between groups was determined using Student's t-test.

Row | Substance | CFTR-mediated conductance (Gt) and current (It) (CFTR) | HA-tagged CFTR at the cell surface (ELISA) (HA-tagged wild-type CFTR)
1 | miR-138 mimic: synthetic modified RNA duplex, sense SEQ ID NO: 4, antisense SEQ ID NO: 5, showing miR-138-like activity | increased | increase
2 | SIN3A DsiRNA: Dicer-substrate siRNA against SIN3A, sense SEQ ID NO: 6, antisense SEQ ID NO: 7 (sense GCGAUACAUGAAUUCAGAUACUACC; antisense GGUAGUAUCUGAAUUCAUGUAUCGCUC; chemistry not given here) | increased | increase
